Structures can show the parent of a compound that is named as a salt. Where two headings read alike, the source gives them in different places.
What was measured:
I2 Imidazoline Receptor = test: Binding study towards I2 imidazoline receptor subtype in rat brain ([3H]2-BFI displacement); details: read-out: [3H]2-BFI binding IC50; rat whole brain membranes, [3H]-2BFI 2.5x10-9 M, 90 min at 25° C.
Experimental: Binding Study Towards I2 Imidazoline Receptor Subtype in Rat Brain.
Male Wistar rats (240-300 g, Harlan, Italy) were sacrificed by decapitation. Whole brains were immediately removed on ice and homogenised in 10 volumes of buffered sucrose (0.32M in 50 mM Tris-HCl, pH 7.4 at 4° C.) using a motor driven Teflon-glass homogeniser. The homogenate was centrifuged at 1000×g for 10 min at 4° C. The resultant supernatants were pooled and centrifuged at 32000×g for 20 min at 4° C. The supernatants were discarded and each pellet suspended in 10 volumes of assay buffer (50 mM Tris-HCl, 1 mM MgCl2, pH 7.4 at 4° C.) and spun at 32000×g for 20 min at 4° C. The pellets were washed twice by repeated centrifugation at 32000×g for 20 min at 4° C. The final pellets were stored at −80° C. until use. Prior to radioligand binding studies, membrane pellets were thawed and washed a further 4 times by re-suspension in 10 volumes of assay buffer (as above) and repeated centrifugation to remove any possible endogenous inhibitors of binding. […] Non specific binding was determined in the presence of 10^-5 M BU224 (Tocris Bioscience). The incubation, in a final volume of 1 ml, was performed in polystyrene multiwell 24, started adding membranes suspension and was carried out for 90 min at 25° C. With the exception of total binding and non specific binding, all concentration points were performed in duplicate. Compounds were tested in 3-5 different concentrations, ranging from 10^-10 M to 10^-5 M final concentration.

human recombinant MAO-B = human recombinant MAO-B (Homo sapiens (Human), UniProt P27338); test: Monoaminooxidase (MAO) activity assay, MAO-Glo luminescent method, MAO-B
Experimental: Monoaminooxidase (MAO) Activity Assay.
(§1) Inhibitory activity of compounds was evaluated by a homogeneous luminescent method, the MAO-Glo™ Assay (Promega), measuring the monoamine oxidase activity (MAOs) from recombinant source (microsomes from baculovirus infected insect cells, Sigma). Experiments were performed according to the Supplier's procedure, incubating human recombinant MAO-A or MAO-B with a luminogenic substrate, a derivative of beetle luciferin ((4S)-4,5-dihydro-2-(6-hydroxybenzothiazolyl)-4-thiazolecarboxylic acid). […] The MAO-Glo™ Assay was performed in two steps:
(§2) Step 1. The MAO reaction: MAO substrate was incubated with MAO-A or MAO-B (1 μg/sample) in the absence (Total activity) or presence (modulated activity) of test compounds. Total activity was determined in the presence the appropriate solvent. […] Reaction started adding the enzyme solution and samples were incubated for 60 min at room temperature. For negative control reaction, samples of MAO reaction buffer (100 mM Hepes, 5% glycerol, pH 7.5) indeed the test compound were included. For MAO-B activity assay, MAO reaction buffer contain 10% DMSO, in order to increase enzymatic activity. Step 2. […] At the end of incubation 50 μl of Luciferin Detection reagent were added to each well, plate was incubated at room temperature for 20 min, then luminescent signal was detected by luminometer (integration time 0.25-1 sec per well). […] Net MAO-dependent luminescence (net RLU) were calculated by subtracting the average luminescence of the negative control reaction without MAO enzyme. A reduction of net signal in the presence of test compound, with respect to total activity, reflect its effect on MAOs activity. […] A percentage of inhibition for each concentration tested were calculated and the IC50 value was estimated by linear regression.

human recombinant MAO-A = human recombinant MAO-A (Homo sapiens (Human), UniProt P21397); test: Monoaminooxidase (MAO) activity assay, MAO-Glo luminescent method, MAO-A
Experimental: Monoaminooxidase (MAO) Activity Assay.
as §1, §2

CD1 Mice = test: Tail suspension test in mice; assay type: in vivo; details: Table 3; for MPE (% inhibition in immobility time): 30 min before the test
Experimental: Tail Suspension Test in Mice
To evaluate novel antidepressants compounds several animal models have been developed. […] The antidepressant effect of representative examples of compounds of formula (I) has been evaluated according to the procedure below. The immobility was induced according to the procedure of Stem et al. (1985). CD1 Mice (Harlan, Italy) were individually suspended 75 cm above the top with an adhesive tape placed 1 cm from the tip of the tail. Immobility duration was recorded for 5 min. Mice were considered immobile only when they hung passively and completely motionless. Compounds were given orally, 30 min before the test at doses ranging between 0.3 and 30 mg/kg. Data collected were expressed as mean percent effect (MPE), which represents the % of inhibition in immobility time between the animals treated with representative compounds of formula (I) and the controls that received only the vehicle.

[1] = read-out: MAO A activity IC50, human recombinant MAO-A, substrate 40 μM, 60 min room temperature

human recombinant MAO-A, sequence (P21397 whole entry): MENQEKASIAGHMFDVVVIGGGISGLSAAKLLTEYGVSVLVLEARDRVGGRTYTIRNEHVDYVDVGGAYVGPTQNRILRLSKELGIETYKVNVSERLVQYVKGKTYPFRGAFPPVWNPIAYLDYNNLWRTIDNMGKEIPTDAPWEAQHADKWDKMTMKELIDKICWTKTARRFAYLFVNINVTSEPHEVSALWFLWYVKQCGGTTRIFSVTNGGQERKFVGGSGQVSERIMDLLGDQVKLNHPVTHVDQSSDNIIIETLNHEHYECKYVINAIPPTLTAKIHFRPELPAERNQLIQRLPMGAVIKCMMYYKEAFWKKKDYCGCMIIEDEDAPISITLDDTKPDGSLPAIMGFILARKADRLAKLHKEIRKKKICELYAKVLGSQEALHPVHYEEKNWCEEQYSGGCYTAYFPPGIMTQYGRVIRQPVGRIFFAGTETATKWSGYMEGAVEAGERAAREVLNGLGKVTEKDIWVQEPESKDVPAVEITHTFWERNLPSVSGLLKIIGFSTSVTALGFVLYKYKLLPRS
human recombinant MAO-B, sequence (P27338 whole entry): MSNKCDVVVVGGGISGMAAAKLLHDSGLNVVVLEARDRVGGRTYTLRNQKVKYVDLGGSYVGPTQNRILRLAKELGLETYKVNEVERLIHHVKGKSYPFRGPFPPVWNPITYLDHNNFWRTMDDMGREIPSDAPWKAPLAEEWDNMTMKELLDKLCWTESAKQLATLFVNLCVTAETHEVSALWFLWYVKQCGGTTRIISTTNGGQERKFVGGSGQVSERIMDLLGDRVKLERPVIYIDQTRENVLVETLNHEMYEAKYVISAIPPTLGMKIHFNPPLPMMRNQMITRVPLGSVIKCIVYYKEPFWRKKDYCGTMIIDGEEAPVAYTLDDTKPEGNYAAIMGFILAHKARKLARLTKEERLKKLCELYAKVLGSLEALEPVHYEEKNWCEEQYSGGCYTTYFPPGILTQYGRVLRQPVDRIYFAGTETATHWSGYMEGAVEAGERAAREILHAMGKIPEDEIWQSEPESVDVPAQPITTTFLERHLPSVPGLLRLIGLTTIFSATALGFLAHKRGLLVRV

Question: Which IC50 (I2 Imidazoline Receptor) does the source give for `c1cn(-c2ccc3nc(-c4ccc5c(c4)OCO5)ncc3c2)cn1` [Example 13, [6-(1H-imidazol-1-yl)-2-(1,3-benzodioxol-5-yl)]quinazoline] here?
Answer: 1340 nM

Question: And the IC50 (human recombinant MAO-B)?
Answer: > 10000 nM

Question: And the IC50 (human recombinant MAO-A; [1])?
Answer: 10000 nM

Question: For `Cc1nccn1-c1ccc2nc(-c3ccccc3)ccc2c1` (as salt: hydrochloride) [Example 29, [6-(2-methyl-1H imidazol-1-yl)-2-(phenyl)]quinoline dihydrochloride], which melting point is on record?
Answer: 296 to 297 °C

Question: With `Fc1ccc(-c2ccc3cc(-n4ccnc4)ccc3n2)cc1` (as salt: hydrochloride) [Example 21, [6-(1H-imidazol-1-yl)-2-(4-fluorophenyl)]quinoline dihydrochloride] as the compound, how does the melting point read?
Answer: 280.7 to 282 °C

Question: Which melting point does the source give for `Cc1cn(-c2ccc3nc(-c4ccc(S(C)(=O)=O)cc4)ncc3c2)cn1` (as salt: hydrochloride) [Example 11, [6-(4-methyl-1H-imidazol-1-yl)-2-(4-methanesulfonylphenyl)]quinazoline] here?
Answer: 276.4 to 281.7 °C

Question: For `c1cn(-c2ccc3nc(-c4ccoc4)ccc3c2)cn1` (as salt: hydrochloride) [Example 20, [6-(1H-imidazol-1-yl)-2-(3-furyl)]quinoline dihydrochloride], which melting point is on record?
Answer: 293.1 to 295.6 °C

Question: Which IC50 (human recombinant MAO-B) does the source give for `CS(=O)(=O)c1ccc(-c2ccc3cc(-n4ccnc4)ccc3n2)cc1` [Example 25, [6-(1H-imidazol-1-yl)-2-(4-methanesulfonylphenyl)]quinoline dihydrochloride] here?
Answer: > 10000 nM

Question: What about the “MPE (% inhibition in immobility time)” value (CD1 Mice; dose 3 mg/Kg OS) of the same compound?
Answer: 23%

Question: And the “MPE (% inhibition in immobility time)” value (CD1 Mice; dose 10 mg/Kg OS)?
Answer: 54%

Question: What about the “MPE (% inhibition in immobility time)” value (CD1 Mice; dose 30 mg/Kg OS) of the same compound?
Answer: 40%

Question: And the ED50 (CD1 Mice; dose yielding 50% reduction of immobility, oral)?
Answer: 8.7 mg/Kg; OS

Question: Which IC50 (I2 Imidazoline Receptor) does the source give for `N=C(N)NCCCCN` [Agmatine, reference compound] here?
Answer: > 10000 nM

Question: And the IC50 (human recombinant MAO-B)?
Answer: > 100000 nM

Question: What about the IC50 (human recombinant MAO-A) of the same compound?
Answer: > 100000 nM

Question: What does the source list for `FC(F)(F)Oc1ccc(-c2ccc3cc(-n4ccnc4)ccc3n2)cc1` [Example 23, [6-(1H-imidazol-1-yl)-2-(4-trifluoromethoxyphenyl)]quinoline dihydrochloride]?
Answer: IC50 (I2 Imidazoline Receptor): 820 nM; IC50 (human recombinant MAO-B): > 10000 nM; IC50 (human recombinant MAO-A; [1]): 150 nM

Question: Which melting point does the source give for `Cc1cn(-c2ccc3nc(-c4ccc(F)cc4)ccc3c2)cn1` (as salt: hydrochloride) [Example 32, [6-(4-methyl-1H-imidazol-1-yl)-2-(4-fluorophenyl)]quinoline dihydrochloride] here?
Answer: 264 to 268 °C

Question: What does the source list for `c1ccc(-c2ccc3cc(-n4ccnc4)ccc3n2)cc1` [Example 17]?
Answer: IC50 (I2 Imidazoline Receptor): 420 nM; IC50 (human recombinant MAO-B; read-out: MAO B activity IC50): 10000 nM

Question: With `CN(C)c1ccc(-c2ccc3cc(-n4ccnc4)ccc3n2)cc1` [Example 22, [6-(1H-imidazol-1-yl)-2-(4-dimethylaminophenyl)]quinoline trihydrochloride] as the compound, how does the IC50 (I2 Imidazoline Receptor) read?
Answer: 3780 nM

Question: And the IC50 (human recombinant MAO-B; read-out: MAO B activity IC50, human recombinant MAO-B, substrate 4 μM, 60 min room temperature)?
Answer: 1490 nM

Question: And the IC50 (human recombinant MAO-A; [1])?
Answer: 2090 nM

Question: Which results are given for `COc1ccc(-c2ccc3cc(-n4ccnc4)ccc3n2)cc1` [Example 18, [6-(1H-imidazol-1-yl)-2-(4-methoxyphenyl)]quinoline dihydrochloride]?
Answer: IC50 (I2 Imidazoline Receptor): 1900 nM; IC50 (human recombinant MAO-B): > 10000 nM; IC50 (human recombinant MAO-A; [1]): 670 nM

Question: For `COc1ccccc1-c1ccc2cc(-n3ccnc3)ccc2n1` [Example 19, [6-(1H-imidazol-1-yl)-2-(2-methoxyphenyl)]quinoline dihydrochloride], which IC50 (I2 Imidazoline Receptor) is on record?
Answer: 3160 nM

Question: And the IC50 (human recombinant MAO-B)?
Answer: > 10000 nM

Question: What about the IC50 (human recombinant MAO-A) of the same compound?
Answer: > 10000 nM

Question: For `C#CCN(C)[C@H](C)Cc1ccccc1` [Deprenyl, reference compound], which IC50 (I2 Imidazoline Receptor) is on record?
Answer: 2310 nM

Question: With `COc1ccc(-c2ccc3cc(-n4ccnc4)ccc3n2)cc1` (as salt: hydrochloride) [Example 18, [6-(1H-imidazol-1-yl)-2-(4-methoxyphenyl)]quinoline dihydrochloride] as the compound, how does the melting point read?
Answer: 266 to 267 °C

Question: For `COc1ccccc1-c1ccc2cc(-n3ccnc3C)ccc2n1` (as salt: hydrochloride) [Example 27, [6-(2-methyl-1H-imidazol-1-yl)-2-(2-methoxyphenyl)]quinoline dihydrochloride], which melting point is on record?
Answer: 235 °C (dec.)

Question: Which melting point does the source give for `Cc1cc(OC(F)(F)F)ccc1-c1ccc2cc(-n3ccnc3)ccc2n1` (as salt: hydrochloride) [Example 24, [6-(1H-imidazol-1-yl)-2-(2-methyl-4-trifluoromethoxyphenyl)]quinoline dihydrochloride] here?
Answer: 269.7 to 274.5 °C

Question: Which melting point does the source give for `Cc1cncn1-c1ccc2nc(-c3ccccc3)ncc2c1` (as salt: hydrochloride) [Example 5, [6-(5-methyl-1H-imidazol-1-yl)-2-phenyl]quinazoline] here?
Answer: 138.5 to 139.1 °C

Question: With `CN(C)c1ccc(-c2ccc3cc(-n4ccnc4)ccc3n2)cc1` (as salt: hydrochloride) [Example 22, [6-(1H-imidazol-1-yl)-2-(4-dimethylaminophenyl)]quinoline trihydrochloride] as the compound, how does the melting point read?
Answer: 284 to 286 °C

Question: Which melting point does the source give for `Cc1nccn1-c1ccc2nc(-c3ccoc3)ccc2c1` (as salt: hydrochloride) [Example 28, [6-(2-methyl-1H imidazol-1-yl)-2-(3-furyl)]quinoline dihydrochloride] here?
Answer: 240.1 to 243.2 °C

Question: For `COc1ccc(-c2ccc3cc(-n4cnc(C)c4)ccc3n2)cc1` (as salt: hydrochloride) [Example 31, [6-(4-methyl-1H-imidazol-1-yl)-2-(4-methoxyphenyl)]quinoline dihydrochloride], which melting point is on record?
Answer: 276 to 278 °C (dec.)

Question: For `COc1cccc(-c2ncc3cc(-n4cnc(C)c4)ccc3n2)c1` [Example 8, [6-(4-methyl-1H-imidazol-1-yl)-2-(3-methoxyphenyl)]quinazoline], which melting point is on record?
Answer: 294 to 296 °C

Question: For `Cc1cn(-c2ccc3nc(-c4ccc5c(c4)OCO5)ncc3c2)cn1` (as salt: hydrochloride) [Example 9, [6-(4-methyl-1H-imidazol-1-yl)-2-(1,3-benzodioxol-5-yl)]quinazoline], which melting point is on record?
Answer: 215.3 to 218.7 °C

Question: For `Cc1cn(-c2ccc3nc(-c4ccoc4)ncc3c2)cn1` [Example 12, [6-(4-methyl-1H-imidazol-1-yl)-2-(3-furyl)]quinazoline], which melting point is on record?
Answer: 160.5 to 163.2 °C

Question: Which IC50 (I2 Imidazoline Receptor) does the source give for `c1ccc2oc(C3=NCCN3)cc2c1` [Example 2-BFI, 2-benzofuranylimidazoline, reference compound] here?
Answer: 7 nM

Question: And the IC50 (human recombinant MAO-A; [1])?
Answer: > 1000 nM

Question: Which melting point does the source give for `FC(F)(F)Oc1ccc(-c2ccc3cc(-n4ccnc4)ccc3n2)cc1` (as salt: hydrochloride) [Example 23, [6-(1H-imidazol-1-yl)-2-(4-trifluoromethoxyphenyl)]quinoline dihydrochloride] here?
Answer: 260 to 262 °C

Question: With `CSc1ccc(-c2ccc3cc(-n4cnc(C)c4)ccc3n2)cc1` (as salt: hydrochloride) [Example 33, [6-(4-methyl-1H-imidazol-1-yl)-2-(4-methylthiophenyl)]quinoline dihydrochloride] as the compound, how does the melting point read?
Answer: 294 to 296 °C

Question: For `C#CCN(C)CCCOc1ccc(Cl)cc1Cl` [Clorgyline, reference compound], which IC50 (I2 Imidazoline Receptor) is on record?
Answer: 1530 nM

Question: For `COc1ccc(-c2ccc3cc(-n4ccnc4C)ccc3n2)cc1` (as salt: hydrochloride) [Example 26, [6-(2-methyl-1H-imidazol-1-yl)-2-(4-methoxyphenyl)]quinoline dihydrochloride], which melting point is on record?
Answer: 230 °C (dec.)

Question: Which melting point does the source give for `COc1ccc(-c2ncc3cc(-n4ccnc4C)ccc3n2)cc1` (as salt: hydrochloride) [Example 3, [6-(2-methyl-1H-imidazol-1-yl)-2-(4-methoxyphenyl)]quinazoline] here?
Answer: 198.3 to 200.3 °C

Question: For `COc1ccccc1-c1ccc2cc(-n3ccnc3)ccc2n1` (as salt: hydrochloride) [Example 19, [6-(1H-imidazol-1-yl)-2-(2-methoxyphenyl)]quinoline dihydrochloride], which melting point is on record?
Answer: 251.5 to 252 °C

Question: Which melting point does the source give for `COc1ccc(-c2ncc3cc(-n4cnc(C)c4)ccc3n2)cc1` (as salt: hydrochloride) [Example 6, [6-(4-methyl-1H-imidazol-1-yl)-2-(4-methoxyphenyl)]quinazoline] here?
Answer: 201 to 202 °C

Reference: patent US8633208B2, “6-1H-imidazo-quinazoline and quinolines derivatives, new MAO inhibitors and imidazoline receptor ligands” (Rottapharm S.p.A, priority 2008, dated 2014)
